According to article PMC5275761 (Biochemistry, 2016):

Biological target: CYP3A4 (Homo sapiens, UniProt P08684, S18F)
Test: Stopped-flow spectroscopy of ligand binding to CYP3A4 nanodiscs
Details: faster in POPC nanodiscs

Question: `C[C@]12CC[C@H]3[C@@H](CCC4=CC(=O)CC[C@@]43C)[C@@H]1CC[C@@H]2O` [TST, testosterone] was tested. Which “rate constant for binding in POPC nanodiscs relative to 25% POPC/75% DMPC nanodiscs” value did it give?
Answer: Its value is ~ 4 fold.
